Reference: paper PMC11270687 (ACS Omega, 2024)

Tested on: PD3
Type: biochemical, Brucella anthropi

## CCCC(=O)Oc1ccc([N+](=O)[O-])cc1 [p-nitrophenyl butyrate]
  Km: 7.82 mM
